For one assay, the system named is tumor cells. The conditions noted are these: administration of AMG487; Pradelli, E. et al. Int J Cancer 2009, 125, 2586; cited from earlier work.
Another assay addresses human CXCR3A (Homo sapiens (Human), UniProt P49682). Kind of assay: FLIPR assay. The format is cell-based. The settings on record: CHO-K1 cells expressing the human CXCR3A coupled to Galpha(16); CXCL10 agonist 20 nM; Fluo-4-AM fluorescence; mean values if determined several times. The method in brief: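 CHO-K1 cells expressing CXCR3A coupled to Gα16 were loaded with Fluo-4-AM for 1 h in Hepes-buffered HBSS, pH 7.4, with 5 mM probenecid. Compound dilutions were added on the FLIPR, followed by CXCL10 (added as a 20 nM solution). Baseline-subtracted peak fluorescence was fitted to a single-site curve for IC50.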

For the next assay, the target named is CXCR3 (Homo sapiens (Human), UniProt P49682). Kind of assay: Receptor internalization assay. The conditions noted are these: read-out: Internalization IC50. The format is cell-based. In short, it runs like this:
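In human whole blood, compounds were incubated with CXCL10 (9 nM final) for 30 min at 37 °C to drive receptor internalization, then stained with anti-CXCR3/CD3 antibodies and lysed of red cells. Flow cytometry measured mean surface CXCR3 fluorescence on CD3+ cells, and IC50 came from single-site dose-response fits.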

One may read the IC50 as the concentration that gives 50% inhibition.

Structures are written as SMILES. Read-outs that look alike come from different tables or passages of the source.

Sequence of human CXCR3A (P49682 whole entry): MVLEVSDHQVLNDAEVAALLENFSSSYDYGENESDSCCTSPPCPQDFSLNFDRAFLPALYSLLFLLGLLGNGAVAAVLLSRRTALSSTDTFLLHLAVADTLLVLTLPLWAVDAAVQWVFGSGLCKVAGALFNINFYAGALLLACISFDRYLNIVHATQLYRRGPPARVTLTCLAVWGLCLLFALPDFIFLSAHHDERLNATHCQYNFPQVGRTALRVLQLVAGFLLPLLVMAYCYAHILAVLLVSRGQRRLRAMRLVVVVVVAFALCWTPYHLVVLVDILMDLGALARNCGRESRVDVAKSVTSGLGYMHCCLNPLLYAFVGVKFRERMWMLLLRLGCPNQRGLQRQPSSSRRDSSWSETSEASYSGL
Sequence of CXCR3 (P49682 whole entry): as above

Consider `CCOc1ccc(-n2c([C@@H](C)N(Cc3cccnc3)C(=O)Cc3ccc(OC(F)(F)F)cc3)nc3ncccc3c2=O)cc1` [AMG487], for which the “metastasis of tumor cells to the lungs” value with tumor cells was “could limit the metastasis of tumor cells to the lungs”.

As for `O=C(CN1C(=O)Cc2ccccc21)N1CCN(c2scnc2-c2nc3ccccc3[nH]2)CC1` [Example 68, 1-(2-{4-[4-(1H-Benzoimidazol-2-yl)-thiazol-5-yl]-piperazin-1-yl}-2-oxo-ethyl)-1,3-dihydro-indol-2-one], the IC50 came out at 8 nM on human CXCR3A and 749 nM on CXCR3 (human whole blood, final CXCL10 concentration 9 nM, 30 min 37° C., CXCR3 cell surface expression on CD3 positive cells, flow cytometer).

In the case of `Cc1nc(C)n(CC(=O)N2CCN(c3sc(C(F)(F)F)nc3-c3nc4ccc(C5CCN(C)CC5)cc4[nH]3)C[C@H]2C)n1` [Example 237, 2-(3,5-Dimethyl-[1,2,4]triazol-1-yl)-1-((R)-2-methyl-4-{4-[6-(1-methyl-piperidin-4-yl)-1H-benzoimidazol-2-yl]-2-trifluoromethyl-thiazol-5-yl}-piperazin-1-yl)-ethanone], the IC50 on human CXCR3A was determined as 2 nM; at CXCR3, 84 nM.
